# Patent US20250177393A1, “MODULATORS OF MYC FAMILY PROTO-ONCOGENE PROTEIN” (Nalo Therapeutics, priority 2022, published 2025)
# Assays:
# [1] = target: T1, MycN (Homo sapiens, UniProt P04198); assay: Degradation of MycN protein in SK-N-BE(2) cells (JESS/Western blot); assay type: cell-based; conditions: SKNBE2 cells, 24 h; for Dmax at 0.5 µM: read-out: % Degradation of MycN (SKNBE2) 24 h, 0.5 μM; for Dmax at 1 µM: read-out: % Degradation of MycN (SKNBE2) 24 h, 1 μM; for Dmax at 3 µM: read-out: % Degradation of MycN (SKNBE2) 24 h, 3 μM; for Dmax at 6 µM: read-out: % Degradation of MycN (SKNBE2) 24 h, 6 μM
# T1 construct: endogenous in cells; host or cells: SK-N-BE(2)
# T1 sequence (P04198 1-464): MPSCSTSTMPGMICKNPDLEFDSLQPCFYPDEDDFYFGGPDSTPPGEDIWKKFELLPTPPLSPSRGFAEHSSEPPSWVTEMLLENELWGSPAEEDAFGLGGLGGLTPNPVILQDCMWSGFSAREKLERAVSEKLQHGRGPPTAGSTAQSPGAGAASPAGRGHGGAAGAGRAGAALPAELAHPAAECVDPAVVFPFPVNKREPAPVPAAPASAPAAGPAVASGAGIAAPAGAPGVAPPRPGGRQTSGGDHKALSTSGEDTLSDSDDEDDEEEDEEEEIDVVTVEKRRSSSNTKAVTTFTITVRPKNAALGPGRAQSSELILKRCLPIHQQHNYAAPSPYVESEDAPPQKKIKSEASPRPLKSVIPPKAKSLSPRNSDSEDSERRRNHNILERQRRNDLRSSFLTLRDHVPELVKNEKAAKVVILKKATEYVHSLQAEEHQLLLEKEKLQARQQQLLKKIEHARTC
# Description: (§1) For L363 cells (suspension), 1E6 cells were plated into each well of a 6 well plate. For SK—N-BE(2) cells (adherent), 5E5 cells were plated into each well of a 6 well dish. […] All compounds were diluted to 10 mM in DMSO. Cells were treated with the compound for 24 hrs, then for both cell types, media containing cells were removed from wells into a 15 ml centrifuge tube, and remaining adherent SK—N-BE(2) cells were also scraped from the wells into the appropriate tubes. Tubes were centrifuged, cells were washed with PBS then re-centrifuged to pellet cells. A RIPA buffer cocktail was added to the cells on ice for 5 mins. Cell lysates were clarified by centrifugation and stored at −80 degrees until required. BCA assay was performed on each lysate to determine the protein concentration. For validation studies of antibodies, lysates and antibodies were used at a number of concentrations (Lysates: 2, 1, 0.2 mg/ml; Antibodies: 1 in 50, 1 in 200 dilution). Once an appropriate lysate concentration and antibody concentration was determined, samples were screened in the JESS technology (Protein Simple, San Jose, CA—https://www.proteinsimple.com/jess.html). Target protein antibodies (n-myc and c-myc) were detected in the chemiluminescence channel and loading controls (tubulin and GAPDH) were detected using a Near Infra Red (NIR) labeled secondary antibody. For SK—N-EB2 adherent cells, 5E5 cells in 1.9 mls media were plated into 6 well dishes and incubated for 24 hrs. […] Cells were scrapped off the plate, centrifuged, washed with PBS, centrifuged, then a RIPA buffer cocktail added to the cells (100 ul), centrifuged and stored at −80 for later analysis. For L363 suspension cells, 1E6 cells were plated into 24 well dishes (950 ul media) and incubated for 24 hrs. […] Cells were aspirated into tubes, centrifuged, washed with PBS, centrifuged, then a RIPA buffer cocktail added to the cells (100 ul), centrifuged and stored at −80 for later analysis. For Western blot, a BCA (total protein) assay was run on all samples, these were then run in batches of 5 compounds plus control (DMSO) on each Western blot run—n-myc and c-myc were run in separate experiments in the chemiluminescence channel. Both tubulin and GAPDH were run as loading controls in all lanes in the near infra red channel.
# [2] = target: T2, MycC (Homo sapiens, UniProt P01106); assay: Degradation of MycC protein in L363 cells (JESS/Western blot); assay type: cell-based; conditions: L-363 cells, 24 h; for Dmax at 0.5 µM: read-out: % Degradation of MycC (L-363) 24 h, 0.5 μM; for Dmax at 1 µM: read-out: % Degradation of MycC (L-363) 24 h, 1 μM; for Dmax at 3 µM: read-out: % Degradation of MycC (L-363) 24 h, 3 μM; for Dmax at 6 µM: read-out: % Degradation of MycC (L-363) 24 h, 6 μM
# T2 construct: endogenous in cells; host or cells: L363
# Description: as §1
# T2 sequence (P01106 whole entry): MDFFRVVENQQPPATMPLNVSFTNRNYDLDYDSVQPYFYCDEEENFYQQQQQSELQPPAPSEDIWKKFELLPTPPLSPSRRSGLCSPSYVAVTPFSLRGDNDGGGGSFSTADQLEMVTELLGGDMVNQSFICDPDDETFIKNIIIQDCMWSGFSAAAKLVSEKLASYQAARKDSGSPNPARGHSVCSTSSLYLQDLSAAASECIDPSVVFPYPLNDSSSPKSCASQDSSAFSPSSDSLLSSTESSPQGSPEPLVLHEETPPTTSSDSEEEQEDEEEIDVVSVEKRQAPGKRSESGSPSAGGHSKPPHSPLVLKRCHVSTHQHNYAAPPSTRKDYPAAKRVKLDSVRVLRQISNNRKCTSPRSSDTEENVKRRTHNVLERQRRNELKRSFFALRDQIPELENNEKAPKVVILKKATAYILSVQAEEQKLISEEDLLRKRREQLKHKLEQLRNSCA
Structure (SMILES),Dmax at 0.5 µM [1] [%],Dmax at 1 µM [1] [%],Dmax at 3 µM [1] [%],Dmax at 6 µM [1] [%],Dmax at 0.5 µM [2] [%],Dmax at 1 µM [2] [%],Dmax at 3 µM [2] [%],Dmax at 6 µM [2] [%]
"Cn1cc(C(=O)N2CC3(CC(Nc4nccc(Nc5cc(C6CCCC6)[nH]n5)n4)C3)C2)nn1 [Compound 39, (6-((4-((5-Cyclopentyl-1H-pyrazol-3-yl)amino)pyrimidin-2-yl)amino)-2-azaspiro[3.3]heptan-2-yl)(1-methyl-1H-1,2,3-triazol-4-yl)methanone]",20 to 49,< 20,80 to 100,80 to 100,20 to 49,20 to 49,20 to 49,80 to 100
"c1cc(Nc2cc(C3CCCC3)[nH]n2)nc(NC2CCC3(CC2)CNC3)n1 [Compound 40, N^2-(2-Azaspiro[3.5]nonan-7-yl)-N^4-(5-cyclopentyl-1H-pyrazol-3-yl)pyrimidine-2,4-diamine]",50 to 79,80 to 100,80 to 100,80 to 100,–,< 20,80 to 100,80 to 100
"F[C@H]1CNCC[C@H]1Nc1nccc(Nc2cc(C3CC3)[nH]n2)n1 [Compound 41, N4-(5-Cyclopropyl-1H-pyrazol-3-yl)-N2-[(3S,4R)-3-fluoro-4-piperidyl]pyrimidine-2,4-diamine]",< 20,< 20,20 to 49,80 to 100,–,–,–,80 to 100

# The next lines start with the values.
Dmax at 0.5 µM [1] [%],Dmax at 1 µM [1] [%],Dmax at 3 µM [1] [%],Dmax at 6 µM [1] [%],Dmax at 0.5 µM [2] [%],Dmax at 1 µM [2] [%],Dmax at 3 µM [2] [%],Dmax at 6 µM [2] [%],Structure (SMILES)
< 20,20 to 49,20 to 49,50 to 79,< 20,20 to 49,20 to 49,< 20,"F[C@@H]1CNCC[C@@H]1Nc1nccc(Nc2cc(C3CC3)[nH]n2)n1 [Compound 44, N^4-(5-Cyclopropyl-1H-pyrazol-3-yl)-N^2-[(3R,4S)-3-fluoro-4-piperidyl]pyrimidine-2,4-diamine]"
50 to 79,80 to 100,80 to 100,80 to 100,50 to 79,80 to 100,80 to 100,80 to 100,"CN1CC2(CCC(N(C)c3nccc(Nc4cc(C5CC5)[nH]n4)n3)CC2)C1 [Compound 49, N4-(5-Cyclopropyl-1H-pyrazol-3-yl)-N2-methyl-N2-(2-methyl-2-azaspiro[3.5]nonan-7-yl)pyrimidine-2,4-diamine]"
20 to 49,50 to 79,80 to 100,80 to 100,20 to 49,80 to 100,80 to 100,80 to 100,"c1cc(Nc2cc(C3CC3)[nH]n2)nc(NC2CCOCC2)n1 [Compound 65, N4-(5-Cyclopropyl-1H-pyrazol-3-yl)-N2-tetrahydropyran-4-yl-pyrimidine-2,4-diamine]"
